# Measurements: patent US6683069B1, “Methods and compositions for reducing UV-induced inhibition of collagen synthesis in human skin” (Regents of the University of Michigan, priority 1998, dated 2004)
# Experiments:
# Type I procollagen mRNA = test: In situ hybridization for Type I procollagen mRNA in biopsies of retinoid-pretreated, UV-exposed human skin; assay type: in vivo; conditions: 0.1% topical
# Experimental: (§1) We tested whether retinoids, in particular all-trans retinoic acid, would have any effect on the loss of procollagen mRNA and/or the procollagen proteins in human skin after exposure to UV radiation. (Unless otherwise noted, the retinoic acid used in the experiments described herein was all-trans.) Separate areas of skin from each of our volunteers were treated with either 0.1% retinoic acid in vehicle or with vehicle alone; the vehicle was composed of a mixture of ethanol and polyethylene glycol in a 70:30 volumetric ratio. Thereafter, these areas of skin were exposed to 2 MEDs (typically) of UV radiation and then biopsied at specific times after the exposure; the biopsies were analyzed as described previously. The site of the volunteers' skin to be exposed to UV radiation was treated prior to UV exposure with either the all-trans retinoic acid or the control vehicle. […]
# (§2) In Situ Hybridization: Digoxigenin-containing sense and antisense riboprobes to detect human type I and Type III procollagen RNA (mRNA) were synthesized with the use of T3 and T7 ribonucleic acid polymerases. […] Hybridization signals were detected immunohistochemically with the use of alkaline phosphatase-conjugated antidigoxigenin antibody.
# [1] = tested on: Type I procollagen protein; test: Immunohistological staining for Type I procollagen protein in biopsies of retinoid-pretreated, UV-exposed human skin; assay type: in vivo; conditions: 0.1% topical
# Experimental: as §1, with “previously.” for “previously. The site of the volunteers' skin to be exposed to UV radiation was treated prior to UV exposure with either the all-trans retinoic acid or the control vehicle.”
# (§3) Immunohistology: Immunihistology of Type I and Type III pN collagens was performed as has been described by Griffiths, C. […] Type I pN collagen was detected with mouse monoclonal IgG1 antibody (SP1.D8; available from Univ. of Iowa Dept. of Biological Sciences Developmental Studies Hybridoma Bank, Iowa City, Iowa) raised against the aminopropeptide region of human Type I procollagen (Foellmer, H. G., et al., Euro. J. Biochm., 134:183-189 (1983)). Type III pN collagen was detected with affinity-purified rabbit polyclonal antibody to aminopropeptide of Type III procollagen (identical to that used for Western analysis). […]
# [2] = tested on: Type I procollagen and pN collagen precursor protein; test: Western analysis of Type I procollagen protein and pN precursor protein in retinoic acid-pretreated, UV-exposed human skin; assay type: in vivo; conditions: 0.1% topical, FIG. 12
# Experimental: We tested whether retinoids, in particular all-trans retinoic acid, would have any effect on the loss of procollagen mRNA and/or the procollagen proteins in human skin after exposure to UV radiation. (Unless otherwise noted, the retinoic acid used in the experiments described herein was all-trans.) Separate areas of skin from each of our volunteers were treated with either 0.1% retinoic acid in vehicle or with vehicle alone; the vehicle was composed of a mixture of ethanol and polyethylene glycol in a 70:30 volumetric ratio. Thereafter, these areas of skin were exposed to 2 MEDs (typically) of UV radiation and then biopsied at specific times after the exposure; the biopsies were analyzed as described previously. The site of the volunteers' skin to be exposed to UV radiation was treated prior to UV exposure with either the all-trans retinoic acid or the control vehicle. […] Nevertheless, it should be understood that a period of pretreatment with retinoid more than eight and less than twenty-four hours before UV exposure may likely be sufficient to prevent the reduction in collagen biosynthesis we have observed. Furthermore, it should be understood that in all of the following examples treatment with a retinoid (e.g., “retinoic acid-treated”) or the vehicle (e.g.,. “vehicle-treated”) should each be understood as pretreatment 24 hours before UV exposure. […]
# (§4) Western analysis of proteins. Type I procollagen and pN collagen precursor protein, as well as Type III procollagen were detected in skin extracts by Western analysis as described by G. J. Fisher et al. (in “Immunological identification and functional quantitation of retinoic acid and retinoid X receptor proteins in human skin,” J. Biol. Chem., 269:20629-20635 (1994)).
# (§5) Immunoreactive proteins were visualized by enhanced chemiluminescence detection and quantified by laser densitometry, or by enhanced chemifluorescence detection and quantified by a Storm imager (Molecular Dynamics, Sunnyvale, Calif.).
# [3] = tested on: Type III procollagen mRNA; test: In situ hybridization for Type III procollagen mRNA in biopsies of retinoid-pretreated, UV-exposed human skin; assay type: in vivo; conditions: 0.1% topical, pretreatment 24 h before UV; FIG. 13D
# Experimental: as §1, §2
# [4] = tested on: Type III procollagen protein; test: Immunohistological staining for Type III procollagen protein in biopsies of retinoid-pretreated, UV-exposed human skin; assay type: in vivo; conditions: 0.1% topical, pretreatment 24 h before 2 MEDs UV, biopsy 24 h after exposure; FIG. 14D
# Experimental: as §1, with “previously.” for “previously. The site of the volunteers' skin to be exposed to UV radiation was treated prior to UV exposure with either the all-trans retinoic acid or the control vehicle.”
# as §3
# [5] = tested on: Type III procollagen protein and pN collagen precursor protein; test: Western analysis of Type III procollagen protein and pN precursor protein in retinoic acid-pretreated, UV-exposed human skin; assay type: in vivo; conditions: 0.1% topical, FIG. 15
# Experimental: as §1, with “previously.” for “previously. The site of the volunteers' skin to be exposed to UV radiation was treated prior to UV exposure with either the all-trans retinoic acid or the control vehicle.”
# as §4, §5
# soluble collagen = test: Soluble collagen (hydroxyproline content) in retinoid-pretreated, UV-exposed human skin in vivo; conditions: 0.1% topical
# Experimental: We tested whether retinoids, in particular all-trans retinoic acid, would have any effect on the loss of procollagen mRNA and/or the procollagen proteins in human skin after exposure to UV radiation. (Unless otherwise noted, the retinoic acid used in the experiments described herein was all-trans.) Separate areas of skin from each of our volunteers were treated with either 0.1% retinoic acid in vehicle or with vehicle alone; the vehicle was composed of a mixture of ethanol and polyethylene glycol in a 70:30 volumetric ratio. Thereafter, these areas of skin were exposed to 2 MEDs (typically) of UV radiation and then biopsied at specific times after the exposure; the biopsies were analyzed as described previously. The site of the volunteers' skin to be exposed to UV radiation was treated prior to UV exposure with either the all-trans retinoic acid or the control vehicle. […] Nevertheless, it should be understood that a period of pretreatment with retinoid more than eight and less than twenty-four hours before UV exposure may likely be sufficient to prevent the reduction in collagen biosynthesis we have observed. Furthermore, it should be understood that in all of the following examples treatment with a retinoid (e.g., “retinoic acid-treated”) or the vehicle (e.g.,. “vehicle-treated”) should each be understood as pretreatment 24 hours before UV exposure.
# We also assayed the biopsies from our volunteers for soluble collagen (measured as hydroxyproline content) in vehicle- and retinoid-treated skin, both before and after UV exposure. […] After UV exposure, the vehicle-treated skin (VEH+UV) had only about 40% of the soluble collagen as was present prior to exposure. The retinoid-treated area (RA+UV) still had reduced amounts of soluble collagen when compared with skin prior to UV exposure, yet the levels were almost twice what was found in the vehicle-treated/UV-exposed skin.
# As mentioned above, the area of the volunteers' skin to be treated with a retinoid prior to UV exposure was pretreated 24 hours prior to exposure. We pretreated certain volunteer's sun-protected skin with 0.1% all trans retinoic acid 8 hours prior to exposure to 2 MEDs of UV radiation. […] Thus, as mentioned above, to prevent UV-induced loss of collagen synthesis using a retinoid, pretreatment 24 hours before exposure yields the desired prophylactic effect, whereas pretreatment 8 hours before exposure yields no significant prophylaxis.
# Hydroxyproline Analysis: hydroxyproline analysis using the Amino Acid Analyzer Model 420H (Applied Biosystems, Foster City, Calif.) automates precolumn phenylthiocarbamyl-amino acid (PTC-AA) analysis. The Model 420H analyzer first hydrolyzes proteins to liberate free amino acids. Once hydrolyzed, the free amino acids are derivatized with phenylisothiocynanate (PITC) to form PTC-AA derivatives. A reverse-phase column in a temperature-controlled oven separates the PTC-AAs. Concentration of hydroxyproline in the skin extract was determined based upon a hydroxyproline standard.
# [6] = pretreatment 24 h before 2 MEDs UV, biopsy 24 h after exposure
structure (smiles),measurement,setting,value
CC1=C(/C=C/C(C)=C/C=C/C(C)=C/C(=O)O)C(C)(C)CCC1 [all-trans retinoic acid],"Type I procollagen mRNA expression in fibroblasts vs vehicle-treated skin, prior to UV exposure","Type I procollagen mRNA; 24 h after treatment, no UV, FIG. 10B vs 10A",essentially the same in both
same,Type I procollagen mRNA expression after UV exposure,"Type I procollagen mRNA; pretreatment 24 h before UV, FIG. 10D",does not appear to evidence any loss in the mRNA signalling
same,"Type I procollagen protein staining vs vehicle-treated skin, prior to UV exposure","[1]; no UV, FIG. 11B vs 11A",no appreciable difference
same,Type I procollagen protein staining after UV vs before UV exposure,"[1]; pretreatment 24 h before 2 MED UV, biopsy 24 h after exposure, FIG. 11D","comparable, though slightly reduced"
same,"Amounts of Type I procollagen and pN precursor protein vs vehicle-treated skin, unexposed","[2]; no UV, vehicle normalized to 1.0",essentially the same amounts
same,"Type I procollagen protein after UV, relative to control",[2]; [6],greater than 80 % of the control
same,"pN collagen precursor protein (Type I) after UV, relative to control",[2]; [6],greater than 80 % of the control
same,Reduction in expression of Type III procollagen mRNA after UV exposure,[3],"little, if any, reduction"
same,Type III procollagen protein staining after UV vs prior to UV exposure,[4],almost the same pattern and intensity of staining
same,"Amounts of Type III procollagen protein and pN precursor protein vs vehicle-treated skin, prior to UV exposure",[5]; no UV,essentially the same amounts
same,Amounts of Type III procollagen protein and pN precursor protein after UV vs control and retinoic acid-treated areas prior to exposure,"[5]; pretreatment 24 h before 2 MEDs UV, RA+UV",essentially the same amounts
same,"Soluble collagen (hydroxyproline content) vs vehicle-treated skin, prior to UV exposure","soluble collagen; 24 h pretreatment, no UV, FIG. 16",about the same
same,"Soluble collagen (hydroxyproline content) vs vehicle-treated skin, without UV exposure","soluble collagen; after 8 hours, no UV, FIG. 17",the same
same,Soluble collagen (hydroxyproline content) 24 hours after UV exposure vs vehicle-treated skin,"soluble collagen; pretreatment 8 hours before 2 MEDs UV, FIG. 17",essentially the same
same,"Soluble collagen (hydroxyproline content) after UV, relative to vehicle-treated/UV-exposed skin","soluble collagen; pretreatment 24 h before UV, RA+UV, FIG. 16",almost twice
same,Prevention of UV-induced reduction in collagen biosynthesis,soluble collagen; pretreatment 24 hours before UV exposure,a reduction in collagen biosynthesis was prevented
same,Prevention of UV-induced reduction in collagen synthesis,soluble collagen; pretreatment eight hours before UV exposure,did not appear to significantly prevent reduction in collagen synthesis
